Reference: patent US10435371B2, “Multifunctional aminoquinoline therapeutic agent” (LOHOCLA RESEARCH CORPORATION, priority 2014, dated 2019)

How the values were obtained:
[1] = test system: rats treated with streptozotocin; assay: Reversal of streptozotocin-induced (diabetic) neuropathic pain (von Frey); type: in vivo, rat
[2] = target: BDZ site, GABA-A Receptor; assay: PDSP radioligand displacement, [^3H]Flunitrazepam; design: species or system rat; details: read-out: Binding constant Ki, BDZ site, GABA-A Receptor
[3] = target: 5-HT2B (Serotonin Rs) (Homo sapiens, UniProt P41595); assay: PDSP radioligand binding
[4] = test system: rats treated with cisplatin; assay: Reversal of cisplatin-induced neuropathic pain (von Frey mechanical pain threshold); type: in vivo, rat; details: 50 mg/kg oral
[5] = test system: rats treated with cisplatin; assay: Prevention of cisplatin-induced neuropathic pain; type: in vivo, rat; details: 50 mg/kg intragastric twice daily for 14 days starting 1 h after first cisplatin injection; FIG. 14
Method: (§1) This example illustrates that treatment of animals with DCUKA following insult, but prior to development of neuropathic pain, can prevent the development of the pain. Rats were treated with cisplatin or CFA, and mechanical pain threshold was measured, as described under Example 5.
Prevention of Cisplatin-Induced Neuropathic Pain by DCUKA. One day after baseline measurement of the mechanical pain threshold, rats were injected i.p. with cisplatin. Cisplatin injections were again given on days 4, 8, and 12. Starting one hour after the first cisplatin injection, rats were given 50 mg/kg DCUKA or vehicle via intragastric gavage twice daily for 14 days. After the last treatment (day 15) the mechanical pain threshold was again tested. The pain threshold was then tested once weekly for 4 weeks, with no further treatments.

[6] = target: EP2 (Prostaglandin Rs) (Homo sapiens, UniProt P43116); assay: PDSP radioligand binding; details: Table 3, the 6th table r12c1; read-out: Ki, EP2 (lack of affinity)
[7] = target: V1A (Vasopressin) (Homo sapiens, UniProt P37288); assay: PDSP radioligand binding
[8] = target: Serotonin Transporter (Homo sapiens, UniProt P31645); assay: PDSP radioligand binding
[9] = target: mGluR5 (Metabotropic Glutamate Rs) (Homo sapiens, UniProt P41594); assay: PDSP radioligand binding
[10] = target: M2 (Muscarinic Cholinergic Rs) (Homo sapiens, UniProt P08172); assay: PDSP radioligand binding
[11] = target: CaV1.2 (Voltage sensitive Ca** channel (L-type)) (Homo sapiens, UniProt Q13936); assay: PDSP radioligand binding; details: Table 3, the 6th table r22c0; read-out: Ki, CaV1.2 (lack of affinity)
[12] = test system: rats treated with Complete Freund's Adjuvant; assay: Combination with morphine, CFA-induced pain, mechanical pain threshold; type: in vivo, rat; details: FIG. 15 Panel A
[13] = test system: rats treated with Complete Freund's Adjuvant; assay: Prevention of CFA-induced neuropathic pain; type: in vivo, rat; details: 50 mg/kg oral, four treatments at 12-hour intervals starting after CFA injection; FIG. 13
Method: as §1
Prevention of CFA-Induced Neuropathic Pain by DCUKA. After baseline measurement of the mechanical pain threshold, rats were treated with CFA as described earlier. Following the CFA injection, rats were given vehicle (canola oil/gelatin) (n=7) or 50 mg/kg DCUKA (n=7) orally by intragastric gavage. Rats then received three more treatments with vehicle or DCUKA at 12-hour intervals. At 60 hours after CFA treatment, the mechanical pain threshold was again tested.

[14] = test system: rats treated with streptozotocin; assay: Combination with aspirin, STZ-induced neuropathic pain (von Frey); type: in vivo, rat; details: FIG. 16
Method: After administration of streptozotocin (STZ) as described in Example 5, rats were tested for allodynia using a von Frey apparatus. Sixty minutes prior to testing, rats were divided into four groups. Group 1 received vehicle; group 2 received DCUKA; group 3 received aspirin; and group 4 received a combination of DCUKA and aspirin.

[15] = target: delta opiate receptor (Homo sapiens, UniProt P41143); assay: cAMP accumulation, HeLa cells transfected with D1 receptor, DOR and AC5; type: cell-based; design: expressed in transfected cells; details: HeLa cells, AC5
[16] = test system: rats treated with Complete Freund's Adjuvant; assay: Reversal of CFA-induced neuropathic pain (von Frey mechanical pain threshold); type: in vivo, rat; details: for Mechanical pain threshold, ratio to baseline: 1 hour
[17] = target: β1 (Adrenergic Rs (beta adrenergic)) (Homo sapiens, UniProt P08588); assay: PDSP radioligand binding
[18] = target: MOR (μ opiate receptor) (Homo sapiens, UniProt P35372); assay: PDSP radioligand binding, [^3H]DAMGO
[19] = target: 5-HT1A (Serotonin Rs) (Homo sapiens, UniProt P08908); assay: PDSP radioligand binding
5-HT1A (Serotonin Rs), sequence (P08908 whole entry): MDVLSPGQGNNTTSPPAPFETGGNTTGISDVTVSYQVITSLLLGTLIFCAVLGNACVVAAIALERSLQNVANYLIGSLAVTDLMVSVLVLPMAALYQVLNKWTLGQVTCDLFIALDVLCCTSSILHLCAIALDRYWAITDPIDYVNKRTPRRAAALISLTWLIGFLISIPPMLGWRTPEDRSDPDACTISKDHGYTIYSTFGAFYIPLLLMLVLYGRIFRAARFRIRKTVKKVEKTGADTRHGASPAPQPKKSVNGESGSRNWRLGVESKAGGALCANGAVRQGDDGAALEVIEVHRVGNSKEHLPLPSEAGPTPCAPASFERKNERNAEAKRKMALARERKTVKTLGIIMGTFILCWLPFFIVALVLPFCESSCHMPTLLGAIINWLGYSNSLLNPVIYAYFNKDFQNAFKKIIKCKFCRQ

delta opiate receptor, sequence (P41143 whole entry): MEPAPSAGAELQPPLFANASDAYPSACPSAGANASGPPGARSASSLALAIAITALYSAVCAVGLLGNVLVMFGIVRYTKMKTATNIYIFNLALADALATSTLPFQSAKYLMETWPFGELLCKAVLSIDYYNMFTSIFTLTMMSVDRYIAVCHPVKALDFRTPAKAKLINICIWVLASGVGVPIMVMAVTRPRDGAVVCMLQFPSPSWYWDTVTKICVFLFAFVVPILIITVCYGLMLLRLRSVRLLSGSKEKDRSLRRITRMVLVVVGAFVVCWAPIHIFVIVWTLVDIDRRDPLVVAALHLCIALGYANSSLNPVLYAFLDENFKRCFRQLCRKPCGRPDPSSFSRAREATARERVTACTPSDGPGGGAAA
β1 (Adrenergic Rs (beta adrenergic)), sequence (P08588 whole entry): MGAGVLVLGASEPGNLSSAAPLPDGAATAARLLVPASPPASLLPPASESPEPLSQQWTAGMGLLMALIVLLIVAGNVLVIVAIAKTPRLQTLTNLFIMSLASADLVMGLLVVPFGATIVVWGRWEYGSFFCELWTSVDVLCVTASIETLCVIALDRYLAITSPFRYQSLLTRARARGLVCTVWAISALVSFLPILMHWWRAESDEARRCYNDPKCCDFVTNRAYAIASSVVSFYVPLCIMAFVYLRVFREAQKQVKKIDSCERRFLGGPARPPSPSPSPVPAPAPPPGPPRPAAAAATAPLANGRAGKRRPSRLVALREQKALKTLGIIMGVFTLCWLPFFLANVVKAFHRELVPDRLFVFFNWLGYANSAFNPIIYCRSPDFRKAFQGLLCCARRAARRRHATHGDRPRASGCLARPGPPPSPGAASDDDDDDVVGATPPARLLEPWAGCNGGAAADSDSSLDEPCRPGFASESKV
V1A (Vasopressin), sequence (P37288 whole entry): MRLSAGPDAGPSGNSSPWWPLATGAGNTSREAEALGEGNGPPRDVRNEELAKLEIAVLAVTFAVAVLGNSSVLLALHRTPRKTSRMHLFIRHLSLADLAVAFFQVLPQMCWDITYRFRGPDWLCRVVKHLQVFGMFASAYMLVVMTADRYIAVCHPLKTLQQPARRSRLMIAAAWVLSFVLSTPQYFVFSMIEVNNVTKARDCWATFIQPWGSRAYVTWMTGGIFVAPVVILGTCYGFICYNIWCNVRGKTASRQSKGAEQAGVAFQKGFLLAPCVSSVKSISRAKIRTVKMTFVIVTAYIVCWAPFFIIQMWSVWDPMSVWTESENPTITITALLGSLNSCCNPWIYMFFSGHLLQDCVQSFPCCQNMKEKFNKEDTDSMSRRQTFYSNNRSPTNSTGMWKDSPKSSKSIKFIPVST
CaV1.2 (Voltage sensitive Ca** channel (L-type)), sequence (Q13936 whole entry): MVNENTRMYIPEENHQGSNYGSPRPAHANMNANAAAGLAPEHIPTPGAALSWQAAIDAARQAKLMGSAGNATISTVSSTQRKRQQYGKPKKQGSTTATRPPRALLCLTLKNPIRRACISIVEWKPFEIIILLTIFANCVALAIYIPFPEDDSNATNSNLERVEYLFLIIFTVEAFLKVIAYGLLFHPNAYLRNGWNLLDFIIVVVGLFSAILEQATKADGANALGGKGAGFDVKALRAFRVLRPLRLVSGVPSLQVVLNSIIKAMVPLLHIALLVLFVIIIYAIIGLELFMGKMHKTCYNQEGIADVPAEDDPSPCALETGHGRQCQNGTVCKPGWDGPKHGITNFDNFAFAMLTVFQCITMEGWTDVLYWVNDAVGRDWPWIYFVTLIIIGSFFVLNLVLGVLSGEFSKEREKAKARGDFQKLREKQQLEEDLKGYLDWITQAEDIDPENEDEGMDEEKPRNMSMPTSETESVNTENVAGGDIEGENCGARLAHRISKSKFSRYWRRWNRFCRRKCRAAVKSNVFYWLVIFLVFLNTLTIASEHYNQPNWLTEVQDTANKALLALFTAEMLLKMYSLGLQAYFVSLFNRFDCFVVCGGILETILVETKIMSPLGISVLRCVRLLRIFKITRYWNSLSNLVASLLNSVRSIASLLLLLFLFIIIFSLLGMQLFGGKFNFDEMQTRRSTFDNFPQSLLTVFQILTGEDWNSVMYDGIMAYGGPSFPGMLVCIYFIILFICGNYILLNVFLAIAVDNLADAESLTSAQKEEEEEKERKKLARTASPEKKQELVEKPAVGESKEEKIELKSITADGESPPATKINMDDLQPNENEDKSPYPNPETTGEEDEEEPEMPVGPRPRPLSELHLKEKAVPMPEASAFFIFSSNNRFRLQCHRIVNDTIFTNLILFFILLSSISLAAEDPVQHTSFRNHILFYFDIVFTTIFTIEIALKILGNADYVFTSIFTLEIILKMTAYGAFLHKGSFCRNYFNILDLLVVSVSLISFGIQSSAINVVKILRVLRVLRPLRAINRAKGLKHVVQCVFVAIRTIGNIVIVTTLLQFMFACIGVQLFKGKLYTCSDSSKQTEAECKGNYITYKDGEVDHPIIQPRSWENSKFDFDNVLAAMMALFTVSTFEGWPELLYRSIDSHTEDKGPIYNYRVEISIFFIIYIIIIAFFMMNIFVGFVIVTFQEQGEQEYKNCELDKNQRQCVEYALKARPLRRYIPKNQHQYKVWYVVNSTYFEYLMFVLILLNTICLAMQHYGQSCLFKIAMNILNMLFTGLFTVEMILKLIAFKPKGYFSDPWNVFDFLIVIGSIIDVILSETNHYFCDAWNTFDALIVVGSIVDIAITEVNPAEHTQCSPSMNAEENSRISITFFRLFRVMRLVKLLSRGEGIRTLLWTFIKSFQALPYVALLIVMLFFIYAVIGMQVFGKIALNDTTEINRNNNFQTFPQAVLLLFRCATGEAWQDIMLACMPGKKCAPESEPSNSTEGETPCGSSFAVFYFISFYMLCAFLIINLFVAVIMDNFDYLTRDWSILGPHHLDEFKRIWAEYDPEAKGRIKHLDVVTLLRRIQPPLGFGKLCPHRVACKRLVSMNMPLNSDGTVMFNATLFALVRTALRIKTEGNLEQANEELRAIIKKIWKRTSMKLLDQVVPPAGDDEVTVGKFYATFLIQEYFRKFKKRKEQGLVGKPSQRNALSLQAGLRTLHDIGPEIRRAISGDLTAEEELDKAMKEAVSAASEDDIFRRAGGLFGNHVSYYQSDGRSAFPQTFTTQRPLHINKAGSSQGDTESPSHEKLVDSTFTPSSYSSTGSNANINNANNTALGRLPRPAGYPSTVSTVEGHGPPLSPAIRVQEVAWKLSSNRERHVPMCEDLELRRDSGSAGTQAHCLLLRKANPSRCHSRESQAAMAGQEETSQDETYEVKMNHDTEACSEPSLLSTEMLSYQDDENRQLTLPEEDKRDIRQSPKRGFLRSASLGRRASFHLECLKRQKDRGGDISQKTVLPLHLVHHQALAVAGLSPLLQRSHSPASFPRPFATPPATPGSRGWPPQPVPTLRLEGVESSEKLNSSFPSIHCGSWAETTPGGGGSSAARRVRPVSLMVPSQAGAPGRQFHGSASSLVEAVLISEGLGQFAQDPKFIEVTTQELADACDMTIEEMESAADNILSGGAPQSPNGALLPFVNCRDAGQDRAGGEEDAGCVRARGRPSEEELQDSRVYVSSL
5-HT2B (Serotonin Rs), sequence (P41595 whole entry): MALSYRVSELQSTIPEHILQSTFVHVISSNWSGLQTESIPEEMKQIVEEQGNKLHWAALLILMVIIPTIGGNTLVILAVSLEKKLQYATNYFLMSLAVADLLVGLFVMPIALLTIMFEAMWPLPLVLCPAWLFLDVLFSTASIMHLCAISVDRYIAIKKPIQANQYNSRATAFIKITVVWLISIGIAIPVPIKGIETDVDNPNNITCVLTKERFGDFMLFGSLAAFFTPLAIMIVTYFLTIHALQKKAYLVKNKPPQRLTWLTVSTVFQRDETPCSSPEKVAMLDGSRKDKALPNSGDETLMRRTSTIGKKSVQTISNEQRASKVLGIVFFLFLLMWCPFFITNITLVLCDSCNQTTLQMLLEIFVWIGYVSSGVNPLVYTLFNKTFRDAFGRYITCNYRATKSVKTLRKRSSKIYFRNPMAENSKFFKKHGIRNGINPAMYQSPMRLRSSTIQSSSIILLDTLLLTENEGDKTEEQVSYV
Serotonin Transporter, sequence (P31645 whole entry): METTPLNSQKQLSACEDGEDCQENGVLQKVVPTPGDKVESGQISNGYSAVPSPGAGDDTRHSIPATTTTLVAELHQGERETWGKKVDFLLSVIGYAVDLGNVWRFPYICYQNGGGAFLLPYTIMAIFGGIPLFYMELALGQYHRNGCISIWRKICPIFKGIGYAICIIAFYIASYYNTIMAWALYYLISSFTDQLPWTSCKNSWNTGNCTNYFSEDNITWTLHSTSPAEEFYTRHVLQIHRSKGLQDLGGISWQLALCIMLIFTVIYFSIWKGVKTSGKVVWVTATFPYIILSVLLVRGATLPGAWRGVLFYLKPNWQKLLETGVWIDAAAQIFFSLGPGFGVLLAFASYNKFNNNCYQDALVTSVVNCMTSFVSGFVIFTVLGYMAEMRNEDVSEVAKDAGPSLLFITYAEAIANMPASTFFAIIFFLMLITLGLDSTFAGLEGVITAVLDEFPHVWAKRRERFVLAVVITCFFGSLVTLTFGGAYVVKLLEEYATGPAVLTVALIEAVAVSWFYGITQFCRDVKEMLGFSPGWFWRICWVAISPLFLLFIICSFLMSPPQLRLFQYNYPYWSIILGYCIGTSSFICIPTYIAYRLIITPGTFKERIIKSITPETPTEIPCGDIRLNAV

SMILES: O=C(O)c1cc(NC(=O)N(c2ccccc2)c2ccccc2)c2c(Cl)cc(Cl)cc2n1 [DCUKA, 5,7-dichloro-4-(3,3-diphenylureido)quinoline-2-carboxylic acid]
- Mechanical pain threshold, ratio to baseline ([1]; 14 days after STZ, 40 or 50 mg/kg oral, 90 minutes, three experiments combined, FIG. 10): reversed to the baseline level
- Difference between 50 mg/kg DCUKA and 0 mg/kg DCUKA in ratio of mechanical pain threshold to pre-STZ threshold ([1]; Fisher's LSD, p<0.0001, FIG. 10): 0.60
- Doses that reversed the effect of STZ on pain threshold back to baseline ([1]; oral, 90 minutes, meta-analysis of four experiments, FIG. 11): ≥ 30 mg/kg
- Ki [2]: > 10 µM
- Ki [3]: > 10 µM
- Mechanical pain threshold, ratio to baseline ([4]; cisplatin i.p. 7 mg/kg total, day 14, 1 and 2 hours, FIG. 6): significantly reversed the drop in mechanical pain threshold
- Mechanical pain threshold, ratio to pre-cisplatin baseline ([4]; rats, 1 hour after dosing, six experiments combined, FIG. 5): increases the mechanical pain threshold to control levels
- Mechanical pain threshold (paw withdrawal threshold) over days [5]: no statistically significant decrease of pain threshold compared to the pre-cisplatin baseline
- Ki [6]: > 10 µM
- Ki [7]: > 10 µM
- Ki [8]: > 10 µM
- Ki [9]: > 10 µM
- Ki [10]: > 10 µM
- Ki [11]: > 10 µM
- Analgesia, each agent alone at the dose used for the combination [12]: ineffective in producing analgesia
- Reversal of CFA-induced pain, combination of DCUKA and morphine ([12]; doses ineffective alone, injected 30 min before test, 48 h after CFA): complete reversal of inflammation-induced chronic pain
- Mechanical pain threshold at 60 hours after CFA, ratio to baseline [13]: the threshold was not reduced
- Effect on allodynia, combination of DCUKA and aspirin ([14]; DCUKA 12.5 mg/kg plus aspirin 25 mg/kg): completely reverse the hyper-responsiveness
- Effect on allodynia, alone ([14]; DCUKA 12.5 mg/kg, 60 min before test): do not have any significant effect on allodynia
- Character of action at the delta opiate receptor [15]: agonist
- IC50 ([15]; D1, DOR, 10 μM DA, DCUKA 0.25-20 μM, regression analysis, FIG. 3, read-out: IC50 for inhibition of cAMP accumulation): 3.9 ± 0.47 µM
- Mechanical pain threshold, ratio to baseline ([16]; 48-60 h after CFA, 50 mg/kg oral, three experiments combined, FIG. 7): a level not significantly different from the baseline level
- Mechanical pain threshold, ratio to baseline ([16]; 48 h after CFA, 50 mg/kg, DCUKA n=17, BCUKA n=6, FIG. 8): reversed the mechanical pain threshold to a level not significantly different from baseline
- Doses that significantly reversed the CFA-induced decrease of mechanical pain threshold ([16]; oral, 60 min, meta-analysis of five experiments, FIG. 9): ≥ 30 mg/kg
- Ki [17]: > 10 µM
- Ki [18]: > 10 µM
- Ki [19]: > 10 µM
